Assay results from patent publication US12662707B2, “MYC amplification drives resistance to pan-RAS inhibitors in pancreatic cancer” (The Trustees of Columbia University in the City of New York, priority 2024, dated 2026).

Assays:
Assay type in all cases: in vivo, mouse
[1] = Pharmacokinetics in KPF/FC mice (tumor and blood)
Protocol: Tumor formation in KPF/FC (KrasLSL.G12D/+; p53flox/flox; Pdx1-Cre) mice was monitored by bi-weekly palpations until the detection of a mass, which was then confirmed by ultrasound. Tumor-bearing mice were randomized and assigned into groups (n=3/dose/timepoint). Single dose of RMC-7977 was administered orally at 10 mg/kg, 25 mg/kg and 50 mg/kg. The same vehicle formulation was used for the control group. Whole blood and tissue (tumors and colons) were harvested at indicated time points preserved as previously described (See Xenograft studies section).
(§1) Whole blood, tumor, colon and skin tissue concentrations of RMC-7977 were determined using liquid chromatography-tandem mass spectrometry (LC-MS/MS) methods. Tissue samples were homogenized with a 5× or 10× volume of homogenization buffer (methanol/15 mM PBS (1:2; v:v) or 15 mM PBS with 10% methanol). […] After thorough mixing and centrifugation, the supernatant was directly analyzed on a Sciex 6500+ triple quadrupole mass spectrometer equipped with an ACQUITY or Shimadzu UPLC system. […] RMC-7977 and IS (verapamil or terfenadine) were detected by positive electrospray ionization using multiple reaction monitoring (RMC-7977: m/z 865.4/706.4 or m/z 865.3/833.5; verapamil: m/z 455.2/164.9; terfenadine: m/z 472.3/436.4). The lower limit of quantification was 0.5 ng/mL or 2.0 ng/mL for blood, tumor, and other tissue. […]

[2] = test system: murine Dusp6 mRNA in normal colon and skin; assay: PK/PD in normal colon and skin of CDX tumor-bearing mice (Dusp6 qRT-PCR)
Protocol: Tumor-bearing animals were randomized and assigned into groups (n=3-10/group). Vehicle or RMC-7977 was administered via oral gavage daily at 10 mg/kg and animals were treated for 21-28 days. Studies were terminated early if tumor burden reached humane endpoint. Body weights were collected twice a week during the study. Means±s.e.m were plotted in the waterfall plots. For the single-dose pharmacokinetic/pharmacodynamic (PK/PD) study, mice were randomized and assigned into groups (n=3-6/dose/timepoint). A single dose of RMC-7977 was administered orally at 10 mg/kg, 25 mg/kg and 50 mg/kg. […]
as §1, with “methods.” for “methods. Tissue samples were homogenized with a 5× or 10× volume of homogenization buffer (methanol/15 mM PBS (1:2; v:v) or 15 mM PBS with 10% methanol).”

[3] = test system: pERK, pS6, CC3, Cyclin A2 in KPC tumors; assay: Pharmacodynamic IHC of KPC tumors (SD, 1 wk, EP)
Protocol: Tumor formation in KPC mice was monitored by bi-weekly palpation. […] Treatments were performed every other day via oral gavage for 1 week. […] Following two consecutive ultrasounds, RMC-7977-treated animals were sacrificed either 4 (n=7) or 24 hours (n=4) after last dose and Vehicle-treated animals were sacrificed between 4-24 hours post last dose. Tissue was harvested and preserved as previously described (See Xenograft studies section). Additional group of KPC mice was also treated with a single dose of RMC-7977 (n=10) or Vehicle (n=3) and tissues were harvested at 4 or 24 hours post dose as previously described. […] RNA was extracted from at least 20 mg of indicated OCT or LN2 frozen tissue using an RNeasy Mini Kit (Qiagen, 74104) and a High Throughput Tissue grinder following the manufacturer's protocol. Reverse transcription was carried out using High-Capacity cDNA Reverse Transcription Kit (ABI, 4368814) according to the manufacturer's protocol. The cDNA product was used for qPCR analysis using TaqMan Gene Expression Master Mix (ABI, 4369016) or iTaq Universal SYBR Green Supermix (BioRad, 172-5125) depending on the primer. […] For qPCR, Ct value of MAPK signature genes and 18S were obtained for analysis. Generated Ct value were normalized to 18S, and then the mean relative mRNA expression levels of each sample were normalized to the average of the vehicle control group. Values were plotted as relative change in mRNA expression compared to Vehicle. Means±s.d. were shown. For primer sequences and more information. All tissues were fixed for up to 24 hours using 10% neutral buffered formalin and then moved to 70% ethanol for long term storage. All stainings were performed on 4-μm tissue sections. Sections were deparaffinized using a Leica XL ST5010 autostainer, after which slides were subjected to heat-activated epitope retrieval. […] Slides were further blocked in serum for 1 hour, and primary antibodies were added for overnight incubation at 4° C. […] Following incubation, ImmPACT DAB peroxidase (Vector Laboratories, SK-4100) was used to develop the stain and hematoxylin was used as nuclear counterstain. Stained slides were imaged at 40× magnification. Quantitative analyses of IHC images were performed using ImageJ.

## CCn1c(-c2cc(N3CCN(C4CC4)CC3)cnc2[C@H](C)OC)c2c3cc(ccc31)-c1csc(n1)C[C@H](NC(=O)[C@H]1[C@@H]3COC[C@@H]31)C(=O)N1CCC[C@H](N1)C(=O)OCC(C)(C)C2 [RMC-7977]
[1]; KPF/FC mice
  exposure in blood and PDAC tumors compared with CDX tumor-bearing BALB/c mice: lower
[1]; KPF/FC tumors
  half-life (t1/2) in KPF/FC tumors compared to CDX tumors: shorter half-life
[2]; normal colon
  fold lower EC50 in Capan-1 tumors compared to colon: ~22 fold
[2]; normal skin
  fold lower EC50 in Capan-1 tumors compared to skin: ~8 fold
[3]; 6 of 7 tumors, 4 hours post final dose
  evaluable EP KPC tumors with full inhibition of pERK expression: 86%
[3]; EP tumors, 24 hours post-dosing
  proliferation (Cyclin A2) in EP tumors: no longer deeply suppressed
[3]; SD, 1 Wk and EP samples, 4 hours after treatment
  apoptosis in KPC tumors: wave of apoptosis
[3]; after a week of treatment
  reduced proliferation (Cyclin A2) in KPC tumors: pronounced and significant
[3]; single dose
  proliferation (Cyclin A2) in KPC tumors: trend towards reduced proliferation
  time to restoration of Ras/Mapk signaling: ≤ 24 h
[3]; single dose, 4 hours after treatment
  Ras/Mapk signaling (pERK IHC) in KPC tumors: near-complete inhibition
[3]; the same 6 EP tumors
  pS6 (S235/S236 and S240/S244) in EP tumors: continued inhibition
